Experimental data published in patent US10238649B2 (AB SCIENCE, priority 2012, dated 2019).

Key:
[1] = tested on: patients with advanced/metastatic pancreatic cancer; test: Ancillary pharmacogenomic study of AB07012, overall survival by gene expression predictor factors; type: in vivo, human; conditions: full cohort with genomic information (n=119)
[2] = target: discoidin domain receptor family member 1 (DDR1) kinase (Homo sapiens, UniProt Q08345); conditions: cited from earlier work
[3] = tested on: Ba/F3 cells expressing PDGFR-α; conditions: read-out: 1050, PDGF-BB-stimulated proliferation and PDGFR-α tyrosine phosphorylation; cited from earlier work
[4] = tested on: Ba/F3 cells expressing human or mouse wild-type c-Kit; conditions: read-out: IC50, stem cell factor-induced proliferation and c-Kit tyrosine phosphorylation; cited from earlier work
[5] = tested on: human cord blood mast cells; conditions: cited from earlier work
[6] = tested on: patients with metastatic pancreatic cancer; conditions: first-line, Conroy et al. 2011; cited from earlier work
[7] = tested on: patients with unresectable pancreatic cancer; conditions: Moore et al. 2007; cited from earlier work
[8] = tested on: patients with locally advanced, unresectable, or metastatic pancreatic adenocarcinoma; conditions: single agent, randomized trials; cited from earlier work

Sequence of discoidin domain receptor family member 1 (DDR1) kinase (Q08345 19-913, species assumed): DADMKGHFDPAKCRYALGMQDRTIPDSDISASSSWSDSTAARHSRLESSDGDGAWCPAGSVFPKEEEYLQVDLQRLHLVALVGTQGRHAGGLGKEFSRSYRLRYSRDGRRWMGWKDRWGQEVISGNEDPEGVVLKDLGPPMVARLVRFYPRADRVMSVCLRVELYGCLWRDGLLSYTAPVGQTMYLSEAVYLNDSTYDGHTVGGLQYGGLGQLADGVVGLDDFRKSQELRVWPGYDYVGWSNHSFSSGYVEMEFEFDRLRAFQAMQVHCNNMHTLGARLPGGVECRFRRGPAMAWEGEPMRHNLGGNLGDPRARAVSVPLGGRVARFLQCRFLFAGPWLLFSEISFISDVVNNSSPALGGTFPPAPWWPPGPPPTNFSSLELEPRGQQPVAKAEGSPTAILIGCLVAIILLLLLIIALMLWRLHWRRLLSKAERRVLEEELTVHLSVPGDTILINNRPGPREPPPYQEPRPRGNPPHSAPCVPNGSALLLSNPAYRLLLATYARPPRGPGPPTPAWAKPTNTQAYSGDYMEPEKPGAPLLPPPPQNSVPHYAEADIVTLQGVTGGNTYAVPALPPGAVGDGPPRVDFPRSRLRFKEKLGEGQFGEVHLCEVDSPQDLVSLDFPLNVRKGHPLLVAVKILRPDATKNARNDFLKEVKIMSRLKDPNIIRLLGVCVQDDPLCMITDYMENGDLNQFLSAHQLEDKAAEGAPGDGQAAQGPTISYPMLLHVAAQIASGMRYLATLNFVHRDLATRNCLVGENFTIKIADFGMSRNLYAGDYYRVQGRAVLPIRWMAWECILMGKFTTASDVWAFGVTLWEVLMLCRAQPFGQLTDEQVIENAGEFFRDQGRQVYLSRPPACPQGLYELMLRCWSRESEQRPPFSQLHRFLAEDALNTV

Molecule | median OS [1] | inhibition of DDR1 autophosphorylation [2] | IC50 [3] | IC50 [4] | FcεRI-mediated degranulation of human cord blood mast cells [5] | objective response rate [6] | survival (months lived) [6] | 1-year survival rate [7] | median OS [7] | 12-month survival [8] | median survival [8]
Cc1ccc(NC(=O)c2ccc(CN3CCN(C)CC3)cc2)cc1Nc1nc(-c2cccnc2)cs1 [masitinib, 4-(4-methylpiperazin-1-ylmethyl)-N-[4-methyl-3-(4-pyridin-3ylthiazol-2-ylamino)phenyl]benzamide] | 7.7 months | pronounced inhibition | 300 ± 5 nM | 150 ± 80 nM | inhibition | – | – | – | – | – | –
Folfirinox | – | – | – | – | – | 31.6% | 11.1 months | – | – | – | –
Nc1ccn(C2OC(CO)C(O)C2(F)F)c(=O)n1 (stereo not shown) [gemcitabine, 4-amino-1-[3,3-difluoro-4-hydroxy-5-(hydroxymethyl)tetrahydrofuran-2-yl]-1H-pyrimidin-2-one] | – | – | – | – | – | 9.4% | 6.8 months | 17% | 5.91 months | approximately 20% | approximately 6 months
